Structures are written as SMILES.

Among the data in patent publication US12398120B2, “Substituted hydantoinamides as ADAMTS7 antagonists” (BAYER AKTIENGESELLSCHAFT, priority 2019, dated 2025) are IC50 values, retold here.

Chain of ADAMTS4 (O75173 213-685): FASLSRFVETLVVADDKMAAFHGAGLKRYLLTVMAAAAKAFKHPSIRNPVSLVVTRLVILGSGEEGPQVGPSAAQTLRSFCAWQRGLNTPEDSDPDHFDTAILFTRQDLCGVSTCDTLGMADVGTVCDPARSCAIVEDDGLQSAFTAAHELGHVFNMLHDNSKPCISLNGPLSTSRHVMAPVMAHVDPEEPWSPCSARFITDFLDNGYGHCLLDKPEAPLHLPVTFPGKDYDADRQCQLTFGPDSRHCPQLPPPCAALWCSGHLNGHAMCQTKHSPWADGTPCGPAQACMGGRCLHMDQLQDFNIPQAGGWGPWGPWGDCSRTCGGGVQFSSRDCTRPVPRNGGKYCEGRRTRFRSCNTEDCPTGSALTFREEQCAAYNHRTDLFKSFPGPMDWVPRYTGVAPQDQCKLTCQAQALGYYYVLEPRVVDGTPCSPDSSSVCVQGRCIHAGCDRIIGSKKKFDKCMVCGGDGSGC

This assay has as its target ADAMTS4 (Homo sapiens (Human), UniProt O75173). As to the kind of experiment: Selectivity assay for ADAMTS-7 modulators: ADAMTS4 (FRET substrate). The format is biochemical. Particulars: ADAMTS4 (R&D 4307-AD) 50 nM, substrate Dabcyl-EEVKAKVQPY-Glu(Edans)-NH2 1 μM, 120 min, 32° C. The method, boiled down: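 Activity read as rising fluorescence after a FRET substrate is cleaved by human ADAMTS4, with reactions started by substrate addition to wells holding compound or DMSO. Percent inhibition plotted against concentration gave IC50.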
Broadly, the IC50 is the midpoint of a concentration-inhibition curve. `CC(C)C1(CNC(=O)c2cccc(F)c2-c2ccc(C(F)(F)F)cc2)NC(=O)NC1=O` (single isomer, unassigned; ent-6) [Example 210, Ent-6-Fluoro-N-[(4-Isopropyl-2,5-Dioxoimidazolidin-4-Yl)Methyl]-4′-(Trifluoromethyl)[Biphenyl]-2-Carboxamide] displayed an IC50 of 23 µM.
With `Cn1nccc1C1(CNC(=O)c2cc(F)ccc2-c2ccc(C(F)(F)F)cc2)NC(=O)NC1=O` (single isomer, unassigned; ent-4) [Example 178, Ent-4-Fluoro-N-{[4-(1-Methyl-1H-Pyrazol-5-Yl)-2,5-Dioxoimidazolidin-4-Yl]Methyl}-4′-(Trifluoromethyl)[Biphenyl]-2-Carboxamide], half-maximal inhibition (IC50) was put at 5.37 µM.
The same measure for `Cc1ccc(-c2cc(Cl)ccc2C(=O)NCC2(c3nccn3C)NC(=O)NC2=O)cc1` (single isomer, unassigned; ent-5) [Example 153, Ent-5-Chloro-4′-Methyl-N-{[4-(1-Methyl-1H-Imidazol-2-Yl)-2,5-Dioxoimidazolidin-4-Yl]Methyl}[Biphenyl]-2-Carboxamide]: 0.51 µM.
The same measure for `Cc1ccc(-c2cc(Cl)ccc2C(=O)NC[C@@]2(C3CC3)NC(=O)NC2=O)cc1` [Example 215, 5-Chloro-N-{[(4R)-4-Cyclopropyl-2,5-Dioxoimidazolidin-4-Yl]Methyl}-4′-Methyl[Biphenyl]-2-Carboxamide]: 3.5 µM; for `COc1cc(Cl)ccc1-c1ccccc1C(=O)NCC1(c2ccnn2C)NC(=O)NC1=O` (single isomer, unassigned; ent-4) [Example 314, Ent-4′-Chloro-2′-Methoxy-N-{[4-(1-Methyl-1H-Pyrazol-5-Yl)-2,5-Dioxoimidazolidin-4-Yl]Methyl}[Biphenyl]-2-Carboxamide]: above 50 µM.
The same measure for `Cc1cn(C)nc1C1(CNC(=O)c2ccccc2-c2ccc(C(F)(F)F)nc2)NC(=O)NC1=O` (racemic) [Example 35, Rac-N-{[4-(1,4-Dimethyl-1H-Pyrazol-3-Yl)-2,5-Dioxoimidazolidin-4-Yl]Methyl}-2-[6-(Trifluoromethyl)Pyridin-3-Yl]Benzamide]: 10 µM; for `O=C1NC(=O)[C@](CNC(=O)c2ccccc2-c2ccc(C(F)(F)F)c(Cl)c2)(C2CC2)N1` [Example 226, 3′-Chloro-N-{[(4R)-4-Cyclopropyl-2,5-Dioxoimidazolidin-4-Yl]Methyl}-4′-(Trifluoromethyl)[1,1′-Biphenyl]-2-Carboxamide]: above 50 µM; for `Cc1nn(C)cc1C1(CNC(=O)c2ccccc2-c2ccc(C(F)(F)F)cc2)NC(=O)NC1=O` (stereo not drawn) [Example 87, Ent-N-{[4-(1,3-Dimethyl-1H-Pyrazol-4-Yl)-2,5-Dioxoimidazolidin-4-Yl]Methyl}-4′-(Trifluoromethyl)[Biphenyl]-2-Carboxamide]: 6.9 µM.
Molecule `O=C1NC(=O)C(CNC(=O)c2ccccc2-c2ccc(C(F)(F)F)cc2)(c2cncn2CC(F)(F)F)N1` (racemic) [Example 94, Rac-N-({2,5-Dioxo-4-[1-(2,2,2-Trifluoroethyl)-1H-Imidazol-5-Yl]Imidazolidin-4-Yl}Methyl)-4′-(Trifluoromethyl)[Biphenyl]-2-Carboxamide] yielded an IC50 of 5.4 µM. The IC50 values of the last two molecules are within 1.5-fold of each other.
With `Cc1nscc1C1(CNC(=O)c2ccccc2-c2ccc(C(F)(F)F)cc2)NC(=O)NC1=O` (stereo not drawn) [Example 86, Ent-N-{[4-(3-Methyl-1,2-Thiazol-4-Yl)-2,5-Dioxoimidazolidin-4-Yl]Methyl}-4′-(Trifluoromethyl)[Biphenyl]-2-Carboxamide], the concentration for half-maximal inhibition (IC50) amounted to 7.6 µM.
The same measure for `O=C1NC(=O)C(CNC(=O)c2ccccc2-c2ccc(C(F)(F)F)cc2)(c2cscn2)N1` (racemic) [Example 196, Rac-N-{[2,5-Dioxo-4-(1,3-Thiazol-4-Yl)Imidazolidin-4-Yl]Methyl}-4′-(Trifluoromethyl)[Biphenyl]-2-Carboxamide]: 30 µM; for `CC(C)C1(CNC(=O)c2cc(F)ccc2-c2ccc(C(F)(F)F)cc2)NC(=O)NC1=O` (single isomer, unassigned; ent-4) [Example 212, Ent-4-Fluoro-N-[(4-Isopropyl-2,5-Dioxoimidazolidin-4-Yl)Methyl]-4′-(Trifluoromethyl)[Biphenyl]-2-Carboxamide]: 13 µM.
In the case of `Cn1nccc1C1(CNC(=O)c2ccccc2-c2ccc(Cl)c(Cl)c2)NC(=O)NC1=O` (single isomer, unassigned; ent-3) [Example 311, Ent-3′,4′-Dichloro-N-{[4-(1-Methyl-1H-Pyrazol-5-Yl)-2,5-Dioxoimidazolidin-4-Yl]Methyl}[Biphenyl]-2-Carboxamide] it was 11 µM.
In the case of `O=C1NC(=O)C(CNC(=O)c2ccc(F)cc2-c2ccc(C(F)(F)F)cc2)(C2(Cl)CC2)N1` (racemic) [Example 282, Rac-N-{[4-(1-Chlorocyclopropyl)-2,5-Dioxoimidazolidin-4-Yl]Methyl}-5-Fluoro-4′-(Trifluoromethyl)[Biphenyl]-2-Carboxamide] it was 16 µM; in that of `Cn1nc2ccccc2c1C1(CNC(=O)c2ccc(F)cc2-c2ccc(C(F)(F)F)cc2)NC(=O)NC1=O` (racemic) [Example 288, Rac-5-Fluoro-N-{[4-(2-Methyl-2H-Indazol-3-Yl)-2,5-Dioxoimidazolidin-4-Yl]Methyl}-4′-(Trifluoromethyl)[Biphenyl]-2-Carboxamide], 21 µM.
`O=C1NC(=O)[C@](CNC(=O)c2c(Cl)cccc2-c2ccc(Cl)cc2)(C2CC2)N1` [Example 231, 3,4′-Dichloro-N-{[(4R)-4-Cyclopropyl-2,5-Dioxoimidazoidin-4-Yl]Methyl}[1,1′-Biphenyl]-2-Carboxamide] yielded an IC50 of 5.2 µM.
The same measure for `O=C1NC(=O)[C@](CNC(=O)c2cccnc2-c2ccc(Cl)cc2)(C2CC2)N1` [Example 90, 2-(4-Chlorophenyl)-N-{[(4R)-4-Cyclopropyl-2,5-Dioxoimidazolidin-4-Yl]Methyl}Pyridine-3-Carboxamide]: 50 µM; for `O=C1NC(=O)C(CNC(=O)c2ccc(F)cc2-c2ccc(C(F)(F)F)cc2)(C2CCC2)N1` (stereo not drawn) [Example 239, Ent-N-[(4-Cyclobutyl-2,5-Dioxoimidazolidin-4-Yl)Methyl]-5-Fluoro-4′-(Trifluoromethyl)[Biphenyl]-2-Carboxamide]: above 50 µM; for `O=C1NC(=O)[C@](CNC(=O)c2ccccc2-c2ccc(C(F)F)cc2)(C2CC2)N1` [Example 122, N-{[(4R)-4-Cyclopropyl-2,5-Dioxoimidazolidin-4-Yl]Methyl}-4′-(Difluoromethyl)[Biphenyl]-2-Carboxamide]: 7.9 µM.
On to `O=C1NC(=O)C(CNC(=O)c2ccccc2-c2ccc(Cl)cc2)(c2ccnn2C(F)F)N1` (single isomer, unassigned; ent-4) [Example 259, Ent-4′-Chloro-N-({4-[1-(Difluoromethyl)-1H-Pyrazol-5-Yl]-2,5-Dioxoimidazolidin-4-Yl}Methyl)[Biphenyl]-2-Carboxamide], for which the half-inhibitory concentration (IC50) was determined as 5.8 µM.
The same measure for `CC(C)C1(CNC(=O)c2ccccc2-c2ccc(C(F)(F)F)nc2)NC(=O)NC1=O` (stereo not drawn) [Example 211, Ent-N-[(4-Isopropyl-2,5-Dioxoimidazolidin-4-Yl)Methyl]-2-[6-(Trifluoromethyl)Pyridin-3-Yl]Benzamide]: 28 µM.
